Results from ChEMBL document CHEMBL2169829, “Water mediated ligand functional group cooperativity: the contribution of a methyl group to binding affinity is enhanced by a COO(-) group through changes in the structure and thermodynamics of the hydration waters of ligand-thermolysin complexes” (J Med Chem, 2012).

molecular target: T1, Thermolysin (Bacillus thermoproteolyticus, UniProt P00800); test: Binding affinity to Bacillus thermoproteolyticus thermolysin by UV-VIS spectrophotometric analysis in presence of 2-furanacryloyl-Gly-Leu-NH2
T1 sequence (P00800 whole entry): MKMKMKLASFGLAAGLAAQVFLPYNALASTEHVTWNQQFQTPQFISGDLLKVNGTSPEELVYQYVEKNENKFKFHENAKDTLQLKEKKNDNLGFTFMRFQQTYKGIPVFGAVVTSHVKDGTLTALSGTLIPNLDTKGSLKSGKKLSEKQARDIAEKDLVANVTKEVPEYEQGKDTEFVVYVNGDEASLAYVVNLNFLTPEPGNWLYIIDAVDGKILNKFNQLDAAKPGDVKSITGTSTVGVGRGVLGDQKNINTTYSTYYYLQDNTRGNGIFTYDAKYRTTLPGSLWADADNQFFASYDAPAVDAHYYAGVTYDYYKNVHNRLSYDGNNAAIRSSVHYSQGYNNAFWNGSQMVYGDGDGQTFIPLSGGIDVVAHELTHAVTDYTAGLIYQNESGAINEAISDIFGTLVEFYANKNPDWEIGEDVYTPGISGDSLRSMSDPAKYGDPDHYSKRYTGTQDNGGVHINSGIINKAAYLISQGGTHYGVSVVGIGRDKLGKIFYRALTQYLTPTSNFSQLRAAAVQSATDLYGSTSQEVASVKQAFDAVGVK

| SMILES | Ki [nM] |
| --- | --- |
| CCNC(=O)[C@H](CC(C)C)NP(=O)(O)CNC(=O)OCc1ccccc1 | 289 |
| CC(C)C[C@H](NP(=O)(O)CNC(=O)OCc1ccccc1)C(=O)N[C@@H](C)C(=O)O | 19.1 |
| CNC(=O)[C@H](CC(C)C)NP(=O)(O)CNC(=O)OCc1ccccc1 | 902 |
| CC(C)C[C@H](NP(=O)(O)CNC(=O)OCc1ccccc1)C(=O)NCC(=O)O | 472 |
